Laboratory results taken from article PMC12396409, “Screening and hit evaluation of a microbial metabolite library against the pathogenic Plasmodium falciparum and Toxoplasma gondii parasites” (International Journal for Parasitology: Drugs and Drug …, 2025).
Structures can show the parent of a compound that is named as a salt. Where two headings read alike, the source gives them in different places. *1 amine or outer side, *2 acyl side, *3 side chain or, on linkers, in order; H or OH if unused. Where a SMILES comes first, the peptide text is derived from it. Bridges are numbered along the chain shown (N, C = ends). [ ]: non-standard residue; d: D form. The star is where a group is joined. Orn(4R-OH,5R-OH) = O=C([C@H](C[C@@H](O)[C@@H](O)N[*:3])N[*:1])[*:2]; Tetradecanoyl(10R,12S-Me2) = CC[C@H](C)C[C@H](C)CCCCCCCCC(=O)*; hTyr(3S-OH,4S-OH) = N[C@H](C(=O)O)[C@H](O)[C@@H](O)c1ccc(O)cc1; Gln(3R-OH) = NC(=O)C[C@@H](O)[C@H](N)C(=O)O; Pro(3S-OH) = O=C(O)[C@H]1NCC[C@@H]1O; Hyp = O=C(O)[C@@H]1C[C@@H](O)CN1

How the values were obtained:
[1] = tested on: T. gondii RH strain (RH-Tub-eYFP) tachyzoites; experiment: microbe, parasite or virus in culture; type: cell-based, Toxoplasma gondii; settings: 72 h; for percent parasite growth at 2 µg/mL: Toxoplasma gondii
[2] = tested on: P. falciparum 3D7 parasites; experiment: P. falciparum growth inhibition assay, 2-cycle (120 h treatment), delayed-death screen and dose-response; type: cell-based, Plasmodium falciparum
[3] = tested on: P. falciparum 3D7 parasites; experiment: P. falciparum growth inhibition assay, 1-cycle (72 h treatment), SYBR DNA staining (library screen at 2 μg/mL and dose-response); type: cell-based, Plasmodium falciparum
[4] = T. gondii, parasite screen 2 μg/mL, % growth, replicate 1
[5] = T. gondii, parasite screen 2 μg/mL, % growth, replicate 2
[6] = P. falciparum, 120 h, parasite screen 2 μg/mL, % growth, replicate 1
[7] = P. falciparum, 120 h, parasite screen 2 μg/mL, % growth, replicate 2
[8] = P. falciparum, 72 h, parasite screen 2 μg/mL, % growth, replicate 1
[9] = P. falciparum, 72 h, parasite screen 2 μg/mL, % growth, replicate 2
[10] = Plasmodium falciparum, 3D7, library screen at 2 μg/mL, 120 h, % growth, replicate 1, read-out: Pf_120h_%Growth_Rep1
[11] = Plasmodium falciparum, 3D7, library screen at 2 μg/mL, 120 h, % growth, replicate 2, read-out: Pf_120h_%Growth_Rep2
[12] = Plasmodium falciparum, 3D7, library screen at 2 μg/mL, 72 h, % growth, replicate 1, read-out: Pf_72h_%Growth_Rep1
[13] = Plasmodium falciparum, 3D7, library screen at 2 μg/mL, 72 h, % growth, replicate 2, read-out: Pf_72h_%Growth_Rep2

## CCCCCCCC(=O)N[C@H]1CCOC1=O [BIA-O1496]
[1]; T. gondii, parasite screen at 2 μg/mL, % growth, replicate 1
  Tg_72h_%Growth_Rep1: 127.37%
[1]; T. gondii, parasite screen at 2 μg/mL, % growth, replicate 2
  Tg_72h_%Growth_Rep2: 91.78%
[2]; P. falciparum 3D7, 120 h, parasite screen at 2 μg/mL, % growth, replicate 1
  Pf_120h_%Growth_Rep1: 82.04%
[2]; P. falciparum 3D7, 120 h, parasite screen at 2 μg/mL, % growth, replicate 2
  Pf_120h_%Growth_Rep2: 138.56%
[3]; P. falciparum 3D7, 72 h, parasite screen at 2 μg/mL, % growth, replicate 1
  Pf_72h_%Growth_Rep1: 81.24%
[3]; P. falciparum 3D7, 72 h, parasite screen at 2 μg/mL, % growth, replicate 2
  Pf_72h_%Growth_Rep2: 83.86%

## COc1ccc2cc1Oc1cc(ccc1O)[C@H](O)[C@]13SS[C@@]4(C(=O)N1C)[C@H](O)C1=COC=C[C@H](OC2=O)[C@H]1N4C3=O [Emestrin]
[1]; library screen at 2 μg/mL, % growth, replicate 1
  Tg_72h_%Growth_Rep1: 2.77%
[1]; library screen at 2 μg/mL, % growth, replicate 2
  Tg_72h_%Growth_Rep2: 0.86%
[2]; library screen at 2 μg/mL, 120 h, % growth, replicate 1
  Pf_120h_%Growth_Rep1: 35.44%
[2]; library screen at 2 μg/mL, 120 h, % growth, replicate 2
  Pf_120h_%Growth_Rep2: 47.36%
[3]; library screen at 2 μg/mL, 72 h, % growth, replicate 1
  Pf_72h_%Growth_Rep1: 36.85%
[3]; library screen at 2 μg/mL, 72 h, % growth, replicate 2
  Pf_72h_%Growth_Rep2: 26.37%

## Pyripyropene A
[1]; [4]
  Tg_72h_%Growth_Rep1: 125.43%
[1]; [5]
  Tg_72h_%Growth_Rep2: 86.00%
[2]; [6]
  Pf_120h_%Growth_Rep1: 67.48%
[2]; [7]
  Pf_120h_%Growth_Rep2: 119.28%
[3]; [8]
  Pf_72h_%Growth_Rep1: 79.94%
[3]; [9]
  Pf_72h_%Growth_Rep2: 110.00%

## CN(C)[C@H]1C(O)=C(C(N)=O)C(=O)[C@@]2(O)C(O)=C3C(=O)c4c(O)cccc4[C@@](C)(O)[C@H]3C[C@@H]12 [Epitetracycline hydrochloride]
[1]; read-out: Tg_72h_%Growth_Rep1
  percent parasite growth at 2 µg/mL: 125%
[1]; read-out: Tg_72h_%Growth_Rep2
  percent parasite growth at 2 µg/mL: 100%
[2]
  3) Fold change (72 h/120 h): 3.9
[2]; Plasmodium falciparum, 3D7; P. falciparum, 2 μg/mL, 120 h; read-out: 2) Growth (%) at 120 h
  activity at 2 µg/mL: 14.7%
[2]; [10]
  activity at 2 µg/mL: 18%
[2]; [11]
  activity at 2 µg/mL: 11.5%
[3]; Plasmodium falciparum, 3D7; P. falciparum, 2 μg/mL, 72 h; read-out: 1) Growth (%) at 72 h
  activity at 2 µg/mL: 57.7%
[3]; [12]
  activity at 2 µg/mL: 65.2%
[3]; [13]
  activity at 2 µg/mL: 50.1%

## CN(C)[C@@H]1C(=O)C(C(N)=O)=C(O)[C@@]2(O)C(=O)C3=C(O)c4c(O)cccc4C[C@H]3C[C@@H]12.Cl [Sancycline hydrochloride]
[1]; [4]
  Tg_72h_%Growth_Rep1: 58.51%
[1]; [5]
  Tg_72h_%Growth_Rep2: 60.28%
[2]; [6]
  Pf_120h_%Growth_Rep1: 6.81%
[2]; [7]
  Pf_120h_%Growth_Rep2: 7.98%
[3]; [8]
  Pf_72h_%Growth_Rep1: 1.26%
[3]; [9]
  Pf_72h_%Growth_Rep2: 7.80%

## CC[C@H]1CCC[C@H](O[C@H]2CC[C@H](N(C)C)[C@@H](C)O2)[C@@H](C)C(=O)C2=C[C@@H]3[C@@H](C=C(C)[C@@H]4C[C@@H](O[C@@H]5O[C@@H](C)[C@H](OC)[C@@H](OC)[C@H]5OC)C[C@@H]34)[C@@H]2CC(=O)O1 [Spinosyn D]
[1]; [4]
  Tg_72h_%Growth_Rep1: 127.19%
[1]; [5]
  Tg_72h_%Growth_Rep2: 79.47%
[2]; [6]
  Pf_120h_%Growth_Rep1: 102.44%
[2]; [7]
  Pf_120h_%Growth_Rep2: 14.31%
[3]; 3D7, 72 h treatment, mean ± S.D., n ≥ 3, read-out: IC50 (μM), P. falciparum
  IC50: > 1 µM
[3]; [8]
  Pf_72h_%Growth_Rep1: 88.37%
[3]; [9]
  Pf_72h_%Growth_Rep2: 73.59%
[3]; library screen at 2 μg/mL, 3D7, 72 h, DD from the 120 h timepoint
  Screen (P. falciparum): I

## CC[C@H](C)C[C@H](C)CCCCCCCCC(=O)N[C@H]1C[C@@H](O)[C@@H](O)NC(=O)[C@@H]2[C@@H](O)CCN2C(=O)[C@H]([C@H](O)CC(N)=O)NC(=O)[C@H]([C@H](O)[C@@H](O)c2ccc(O)cc2)NC(=O)[C@@H]2C[C@@H](O)CN2C(=O)[C@H]([C@@H](C)O)NC1=O [Pneumocandin B0] ({Tetradecanoyl(10R,12S-Me2)}-[Orn(4R-OH,5R-OH)]T[Hyp][hTyr(3S-OH,4S-OH)][Gln(3R-OH)][Pro(3S-OH)]; lactam 1-C)
[1]; [4]
  Tg_72h_%Growth_Rep1: 104.00%
[1]; [5]
  Tg_72h_%Growth_Rep2: 85.61%
[2]; [6]
  Pf_120h_%Growth_Rep1: 81.62%
[2]; [7]
  Pf_120h_%Growth_Rep2: 136.49%
[3]; [8]
  Pf_72h_%Growth_Rep1: 84.80%
[3]; [9]
  Pf_72h_%Growth_Rep2: 90.52%

## CC1(C)CC[C@]2(C(=O)O)CC[C@]3(C)C(=CC[C@@H]4[C@@]5(C)C[C@@H](O)[C@H](O)[C@@](C)(CO)[C@@H]5CC[C@]43C)[C@@H]2C1 [Arjunolic acid]
[1]; library screen at 2 μg/mL, % growth, replicate 1, read-out: Tg_72h_%Growth_Rep1
  percent parasite growth at 2 µg/mL: 85.6%
[1]; library screen at 2 μg/mL, % growth, replicate 2, read-out: Tg_72h_%Growth_Rep2
  percent parasite growth at 2 µg/mL: 73.6%
[2]; [10]
  activity at 2 µg/mL: 72.4%
[2]; [11]
  activity at 2 µg/mL: 76.3%
[3]; [12]
  activity at 2 µg/mL: 75.9%
[3]; [13]
  activity at 2 µg/mL: 83%
